ChEMBL document CHEMBL3507680, “University of Dundee, Gates Library screen for HepG2 cell viability”

Experiment: Human HepG2 cell viability assay in 384 well format
Type: toxicity, cell-based
Parameters: dose 125 nL, time 70.5 hour; concentration not given beside the values
Settings: HepG2 cells, read-out: Inhibition

Row | SMILES | cytotoxicity at 70.5 h
1 | Cc1ccccc1CN(CCN(C)C)Cc1ncc[nH]1 | -7.18%
2 | Cc1ccc(C(=O)N2CCSCC2)cc1NC(C)C | -3.36%
3 | Cc1nc(NC(=O)NC(CS(C)(=O)=O)c2ccccc2)sc1C (stereo not given) | -11.5%
4 | CN1[C@H]2CC[C@@H]1CN(C(=O)c1nnc3n1CCCC3)CC2 | 12.6%
5 | CC(Cc1ccccc1F)C(=O)Nc1cccc(OCC(N)=O)c1 (stereo not given) | -2.21%
6 | COCC(=O)Nc1ccc(C)cc1-c1nc(C2CC2)no1 | -7.26%
7 | COc1cc(C2CC(=O)Nc3c2cnn3C)ccc1O (stereo not given) | 46.1%
8 | Cc1csc(N2CCCN(C(=O)C(C(C)C)n3cncn3)CC2)n1 (stereo not given) | 2.24%
9 | O=C(O)c1c(-c2cccnc2)ncc2c1CCN(Cc1cccnc1)C2 | -5.73%
10 | CC(C)Cn1ncc2cc(C(=O)N(C)CCc3ccccc3)cnc21 | -8.96%
11 | Cc1cc(C)nc(CN2CCOC(c3ccc(Cl)cc3)C2)n1 (stereo not given) | -1.88%
12 | Cn1cc(CCCNC(=O)NC2CCN(CC(F)(F)F)C2=O)cn1 (stereo not given) | -3.21%
13 | CCn1cc(CN2CCC(c3nnc(CN(C)C)n3CC)CC2)cn1 | 10.9%
14 | CCOC(=O)C(C)NC(=O)N1CCN(c2nc3ccccc3n2C)CC1 (stereo not given) | -2.33%
15 | O=C(c1ccco1)N1CCCC2(CN(Cc3ccc(F)cc3)CCO2)C1 (stereo not given) | -1.46%
16 | O=C(O)c1cc2c(nc1-c1ccncc1)CCN(C1CCOC1)CC2 (stereo not given) | -4.07%
17 | CN(C)c1ccc(C(=O)NCCCNc2ccc(C(F)(F)F)cn2)cc1 | -13%
18 | O=C(c1cc2c(s1)CCOC2)N1CCCCC1Cn1cccn1 (stereo not given) | -7.81%
19 | Cc1ccc(N2CC[C@@H]3O[C@@H](c4ccncn4)C[C@H]3C2)nn1 | -3.76%
20 | COc1ncccc1CNC(=O)c1c[nH]c(=O)c(Br)c1 | -4.91%
21 | CCOc1ccc(C(=O)N(C)Cc2nccn2CC(F)(F)F)cc1 | -2.52%
22 | CC(C)c1cccc(-n2cc(O)c(C(N)=O)n2)c1 | 25.8%

Row | SMILES | cytotoxicity at 70.5 h
23 | O=C(c1cscn1)N1C[C@H]2CN(Cc3nccs3)C[C@H]2C1 | -1.36%
24 | CC(C)CN1C(=O)C2(CCN(Cc3cccs3)C2)c2ccccc21 (stereo not given) | -16.4%
25 | CS(=O)(=O)N1CCC2(CCN(C(=O)c3cccnc3)CC2)C1 | -7.54%
26 | c1cnc(N2CCN3C[C@H](Oc4cncnc4)C[C@H]3C2)nc1 | -1.15%
27 | Cc1cc(C)n(CCC(=O)N2CCCCC2c2nccs2)n1 (stereo not given) | 11.9%
28 | COCCS(=O)(=O)N1CCN(c2cccc(O)c2)CC1 | -2.61%
29 | CN(C)CCN1CC(C(=O)NCc2cccc(-n3cccn3)c2)CC1=O (stereo not given) | -0.603%
30 | Cc1csc(CN(C)C(=O)Nc2cnn(CC3CCCO3)c2)n1 (stereo not given) | -12.7%
31 | CN(C(=O)c1cccc2[nH]ncc12)C1CCN(c2ccccn2)CC1 | 31.6%
32 | CC(C)OC(=O)N1C[C@H]2CC[C@@H]1CN(C(=O)c1ccccn1)C2 | 10.5%
33 | Cn1ccnc1C(=O)NC[C@@H]1OC[C@H]2CN(S(C)(=O)=O)CC[C@H]21 | -5.19%
34 | Cn1cc(CN2CC[C@@H]3[C@@H]2CCN3C(=O)c2cccc(F)c2)cn1 | -14.7%
35 | Cc1ccc(CN(C)Cc2ncc(C(C)(C)C)o2)o1 | 0.445%
36 | COc1cccc2c1ccn2CC(=O)N[C@@H](CCSC)C(=O)O | -3.11%
37 | Cc1nccc([C@@H]2C[C@H]3CN(S(=O)(=O)c4ccccc4)C[C@H]3O2)n1 | -2.27%
38 | COc1ccc(-c2csc3c2c(N)nc(=O)n3CCCN(C)C)cc1 | -8.54%
39 | CCOCCc1nc(-c2cnn3c(C)cc(C)nc23)no1 | -107%
40 | CN(CC(F)(F)F)C(=O)CNC(=O)Cc1cccc(O)c1 | 1.12%
41 | Cc1cc(C)n(CC2CCN(CC(O)COc3ccccc3)CC2)n1 (stereo not given) | -6.54%
42 | Cc1nc(-c2ccccc2)n(CC(=O)NC2CCCCC2)n1 | -14.1%
43 | CCSc1cc(C(=O)NC(C)c2cccc(N3CCOC3=O)c2)ccn1 (stereo not given) | 16.4%
44 | O=C(CN(CC(O)c1ccc(F)cc1)C1CC1)Nc1cccnc1 (stereo not given) | -24.7%

Row | SMILES | cytotoxicity at 70.5 h
45 | COCCN1C(=O)[C@H]2CC[C@@H]1CN(C(=O)Cc1ccc(O)c(Cl)c1)C2 | 16.7%
46 | CCN(C(=O)CN(Cc1cccc(O)c1)C1CCC(O)CC1)C1CC1 (stereo not given) | -2.83%
47 | COc1ccccc1CC(=O)N1CCC(OCc2cccnc2)CC1 | -13.8%
48 | Cc1cccc2c(CCNC(=O)[C@H](N)c3ccccc3)c[nH]c12 | -17.6%
49 | O=C(O)CC(CC(=O)NCCc1cccs1)c1cccs1 (stereo not given) | 3.06%
50 | COc1ccccc1OC1(C(=O)O)CCN(c2ccccn2)CC1 | 1.96%
51 | CCc1ncc(CN(C)C2CCN(c3sccc3C#N)C2=O)s1 (stereo not given) | -2.11%
52 | CCCc1noc(C(C)N2CC(n3cccn3)C2)n1 (stereo not given) | 6.9%
53 | Cn1ccc(CN2CCC(NC(=O)Cc3ccccc3)CC2)cc1=O | 2.35%
54 | Cc1cccc(NC(=O)c2sc(C)nc2C)n1 | -11.8%
55 | O=C(COCC(F)(F)F)NS(=O)(=O)c1ccc2c(c1)OCCCO2 | -6.81%
56 | Cc1nc(N2CCN(C(=O)CC3CCCC3)CC2)c2cnn(C)c2n1 | 0.786%
57 | O=C(CCC1CCCO1)NCc1ccccc1Cn1cncn1 (stereo not given) | -9.42%
58 | N#Cc1cccc(NC(=O)N[C@H](CO)c2ccccc2)c1 | -10.8%
59 | Cc1ccc(C(=O)N2[C@@H]3CC[C@H]2CN(C)C(=O)C3)c(=O)[nH]1 | -8.22%
60 | CC(C)[C@H]1CN(Cc2ccncc2)C[C@@H]1NC(=O)C1(C#N)CCOCC1 | -1.7%
61 | CCn1ncnc1C1CC(=O)NCc2nc(N3CCCC3)sc21 (stereo not given) | -21.6%
62 | Cc1cccc(N(CCC(N)=O)CC(=O)NC2CCCC2)c1 | 18%
63 | COC(=O)c1ccc2ccn(CC3CCCO3)c(=O)c2c1 (stereo not given) | -0.903%
64 | Cc1n[nH]c(C)c1CCC(=O)N(C)Cc1cn[nH]c1-c1ccc(F)cc1 | 5.04%
65 | CN(Cc1ccncc1)C1CC2(CCN(C(=O)c3ccnnc3)CC2)C1 | -9.02%
66 | COCC(=O)NC[C@@]1(COc2cccnc2)C[C@@H](O)[C@@H](O)C1 | 3.07%

Row | SMILES | cytotoxicity at 70.5 h
67 | CC(C)C1CN(C(=O)c2ccn(C)c(=O)c2)c2ccccc2N1 (stereo not given) | -0.488%
68 | Cc1cc(C(=O)N2CCc3c(nc(-c4ccncc4)[nH]c3=O)C2)no1 | 2.99%
69 | O=C(C1CC1)N1CCCC(c2nc(O)cc(-c3ccncc3)n2)C1 (stereo not given) | -0.584%
70 | CCCc1nc(CNC(C)Cn2cccn2)cs1 (stereo not given) | 3.08%
71 | COc1c(CNCc2ccnc(N3CCOCC3)c2)c(C)nn1C | -3.59%
72 | CN(C)C(=O)COC[C@@]12CCC[C@@H]1CN(C1CCC1)C2 | -10.9%
73 | Cc1cnn(CC2CCCN2C(=O)c2cc(Cl)ccc2F)c1 (stereo not given) | 28.1%
74 | CCc1nnc2n1CCN(Cc1cccc3c1OCCO3)C2 | 21.6%
75 | CN(Cc1cn2c(n1)CN(c1ncc(F)cn1)CC2)Cc1ccco1 | -8.98%
76 | Cc1ccccc1CC(C)(C)NC(=O)CCOc1cccc(C(N)=O)c1 | 4.51%
77 | c1ccc(CCCN2CCCC2Cn2cncn2)cc1 (stereo not given) | -3.86%
78 | Cc1cc(CNC(=O)c2ccc(F)c(COCC3CC3)c2)no1 | -9.69%
79 | Cn1ncc(N2CCC(CNC(=O)[C@@H](N)C3CCCCC3)CC2)cc1=O | 3.03%
80 | O=C(CCC(=O)N1CCNC(=O)C1c1cccc(F)c1)NC1CCCC1 (stereo not given) | -6.2%
81 | O=C(c1ncc[nH]1)N1CCC(Cn2cc(-c3cccc(Cl)c3)nn2)CC1 | 20.7%
82 | CC(C)N(C)Cc1cc(=O)n2c(n1)CN(S(=O)(=O)C1CC1)CCC2 | -7.06%
83 | Cc1nc(CN(C)C(=O)c2ccc(Cn3cnnn3)cc2)cs1 | 21.4%
84 | COc1cccc(CN2CCC3(CC(Nc4ccncn4)C3)C2)c1F (stereo not given) | 2.19%
85 | Cc1cc(C)c(C(=O)NC2CCN(c3ncccc3C#N)CC2)c(=O)[nH]1 | -11.1%
86 | COCC(=O)N1CCC2(CC1)NC(=O)c1ccccc12 | 31.8%
87 | CN(C)CCOc1ccc(CNC(=O)c2cccc(Cl)c2Cl)cc1 | 8.38%
88 | O=C(NCCN1CCOCC1)N(Cc1ccoc1)C1CCCCC1 | 1.39%

Row | SMILES | cytotoxicity at 70.5 h
89 | O=C(Cc1ccc2c(c1)CCC2)NCCNc1ncccn1 | 10.9%
90 | Cn1c(Cn2ccnc2)nnc1C1CCN(C(=O)c2ccoc2)CC1 | -7.81%
91 | O=C1CN([C@@H]2CC[C@@H](NS(=O)(=O)c3ccccc3)[C@H]2O)CCN1 | -2.13%
92 | Cc1nc(CNC(=O)NC2CC(C)(C)OC2(C)C)sc1C (stereo not given) | -9.18%
93 | COc1c(CNCc2cccc(CS(C)(=O)=O)c2)c(C)nn1C | -17%
94 | c1cc2c(cc1-c1noc3c1CN(C1CCC1)CC3)OCO2 | 1.77%
95 | O=C(CCc1cccs1)N1CCc2[nH]nc(COc3ccccc3)c2C1 | 2.22%
96 | OC1(c2ccccc2F)CCN(Cc2ccccc2N2CCCC2)CC1 | 12.6%
97 | CN1C[C@@H](C(=O)NC(C)(C)C)[C@@]2(COc3ccc(F)cc3C2=O)C1 | -1.75%
98 | Nc1cc(N2CCC(c3cc(Cc4ccccc4)n[nH]3)CC2)ccn1 | 2.05%
99 | OC1CCN(c2ccnc3c(F)cc(Br)cc23)CC1 | 16.9%
100 | COCCNC(=O)CCc1c(C)nn(-c2nc(C)c(C)c(=O)[nH]2)c1C | -1.63%
101 | Cc1cc(N(C)C)nc(C2(C)CCCN2C(=O)c2cncnc2C)n1 (stereo not given) | -10.8%
102 | O=C(NCC(=O)N1CCCC1Cc1cccc(F)c1)C1CCCC1 (stereo not given) | -1.38%
103 | Cc1cccc(CNCc2c(C)nn(C)c2N2CCOCC2)n1 | -2.64%
104 | CCOCC(=O)N1CCC(Oc2ccc(Cl)cn2)CC1 | -4.45%
105 | COc1cc(CNCc2c(C)nn(CC(C)C)c2N(C)C)ccn1 | 27.3%
106 | COCCOc1ncccc1C(=O)Nc1ccc(-n2cncn2)c(F)c1 | -6.17%
107 | CCc1ccc2c(c1)C(CCNC(=O)Cc1cccc(F)c1)C(=O)N2 (stereo not given) | -4.81%
108 | COc1cccc(C(=O)N2CCC3(CCC(=O)N(C(C)C)C3)CC2)c1C | -4.66%
109 | COc1ccc(CN2C[C@@H]3COC[C@@H](CC(=O)N4CCCC4)[C@@H]3C2)cc1 | -19.9%
110 | Cn1c(=O)c2sccc2n(CC(=O)Nc2cccc(Cl)c2)c1=O | 8.96%
